We go through 17 compounds from patent publication US20110086889A1, “TETRAZOLE COMPOUNDS AS OREXIN RECEPTOR ANTAGONISTS” (priority 2009, published 2011).

The conditions of assay [1]: rat; cited from earlier work.
The conditions of assay [2]: rat model; cited from earlier work.
The conditions of assay [3]: cited from earlier work.
Another assay has as its target T1, human orexin-1 receptor (Homo sapiens, UniProt O43613).
T1 construct: expressed in transfected cells; host or cells: Chinese hamster ovary (CHO) cells, grown under G418 selection
T1 sequence (O43613 1-425): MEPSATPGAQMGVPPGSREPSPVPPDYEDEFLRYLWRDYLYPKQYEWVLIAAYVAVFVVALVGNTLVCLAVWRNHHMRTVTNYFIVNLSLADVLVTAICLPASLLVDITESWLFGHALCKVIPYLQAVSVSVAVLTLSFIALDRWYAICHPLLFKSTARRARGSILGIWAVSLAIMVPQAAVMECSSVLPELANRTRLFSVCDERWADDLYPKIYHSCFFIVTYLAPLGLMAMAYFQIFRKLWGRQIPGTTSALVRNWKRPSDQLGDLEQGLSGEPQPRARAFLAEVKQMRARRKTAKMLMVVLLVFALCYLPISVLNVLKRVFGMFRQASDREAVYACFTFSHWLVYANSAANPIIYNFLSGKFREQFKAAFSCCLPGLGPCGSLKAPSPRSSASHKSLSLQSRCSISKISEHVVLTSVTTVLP
The experiment in a line: FLIPR calcium assay, orexin receptor antagonistic activity, CHO cells expressing the human orexin-1 receptor. The format is cell-based. The note with it: 3 nM orexin-A as agonist, some values geometric mean of n = 2 or 3, read-out: OX1 IC50. Here is the method: (§1) The orexin receptor antagonistic activity of the compounds of formula (I) is determined in accordance with the following experimental method.
(§2) Chinese hamster ovary (CHO) cells expressing the human orexin-1 receptor and the human orexin-2 receptor, respectively, are grown in culture medium (Ham F-12 with L-Glutamine) containing 300 μg/ml G418, 100 U/ml penicillin, 100 μg/ml streptomycin and 10% heat inactivated fetal calf serum (FCS). The cells are seeded at 20,000 cells/well into 384-well black clear bottom sterile plates (Greiner). The seeded plates are incubated overnight at 37° C. in 5% CO2. Human orexin-A as an agonist is prepared as 1 mM stock solution in MeOH:water (1:1), diluted in HBSS containing 0.1% bovine serum albumin (BSA), NaHCO3: 0.375 g/l and 20 mM HEPES for use in the assay at a final concentration of 3 nM.
(§3) Antagonists are prepared as 10 mM stock solution in DMSO, then diluted in 384-well plates using DMSO followed by a transfer of the dilutions into in HBSS containing 0.1% bovine serum albumin (BSA), NaHCO3: 0.375 g/l and 20 mM HEPES. On the day of the assay, 50 μl of staining buffer (HBSS containing 1% FCS, 20 mM HEPES, NaHCO3: 0.375 g/l, 5 mM probenecid (Sigma) and 3 μM of the fluorescent calcium indicator fluo-4 AM (1 mM stock solution in DMSO, containing 10% pluronic) is added to each well. The 384-well cell-plates are incubated for 50 min at 37° C. in 5% CO2 followed by equilibration at r.t. for 30-120 min before measurement.
(§4) Within the Fluorescent Imaging Plate Reader (FLIPR Tetra, Molecular Devices), antagonists are added to the plate in a volume of 10 μl/well, incubated for 10 min and finally 10 μl/well of agonist is added. Fluorescence is measured for each well at 1 second intervals, and the height of each fluorescence peak is compared to the height of the fluorescence peak induced by 3 nM orexin-A with vehicle in place of antagonist. For each antagonist, the IC50 value (the concentration of compound needed to inhibit 50% of the agonistic response) is determined and may be normalized using the obtained IC50 value of a on-plate reference compound. Optimized conditions were achieved by adjustment of pipetting speed and cell splitting regime. The calculated IC50 values of the compounds may fluctuate depending on the daily cellular assay performance. Fluctuations of this kind are known to those skilled in the art.

The next assay addresses T2, human orexin-2 receptor (Homo sapiens, UniProt O43614).
T2 construct: expressed in transfected cells; host or cells: Chinese hamster ovary (CHO) cells, grown under G418 selection
T2 sequence (O43614 1-444): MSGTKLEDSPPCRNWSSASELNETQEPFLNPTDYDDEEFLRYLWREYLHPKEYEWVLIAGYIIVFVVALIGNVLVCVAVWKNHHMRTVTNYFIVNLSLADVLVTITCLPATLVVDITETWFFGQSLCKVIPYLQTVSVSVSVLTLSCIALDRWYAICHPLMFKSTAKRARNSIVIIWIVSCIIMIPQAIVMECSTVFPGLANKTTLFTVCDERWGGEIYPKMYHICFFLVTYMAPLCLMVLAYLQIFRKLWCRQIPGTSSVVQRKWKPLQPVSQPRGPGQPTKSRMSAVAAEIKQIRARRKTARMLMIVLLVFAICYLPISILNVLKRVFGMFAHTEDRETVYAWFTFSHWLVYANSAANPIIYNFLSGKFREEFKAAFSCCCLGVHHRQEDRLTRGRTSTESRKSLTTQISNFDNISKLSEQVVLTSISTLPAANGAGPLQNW
The experiment in a line: FLIPR calcium assay, orexin receptor antagonistic activity, CHO cells expressing the human orexin-2 receptor. The class given is cell-based. The conditions noted are these: 3 nM orexin-A as agonist, some values geometric mean of n = 2 or 3, read-out: OX2 IC50. As to the method: as §1, §2, §3, §4

Regarding `CNC(=O)[C@@H](c1ccccc1)N1CCc2cc(OC)c(OC)cc2[C@@H]1CCc1ccc(C(F)(F)F)cc1` [(2R)-2-{(1S)-6,7-dimethoxy-1-[2-(4-trifluoromethyl-phenyl)-ethyl]-3,4-dihydro-1H-isoquinolin-2-yl}-N-methyl-2-phenyl-acetamide], in assay [1], the “alertness, characterized by active wake and locomotion” value was “decrease alertness”; the “time spent in both REM and NREM sleep” value is “dose-dependently increase”. For the same compound, the memory function entry in assay [2] is listed as “enhance memory function”. In addition, the “activity in a rat model of post-traumatic stress disorder” value in assay [3] is “active”.

Turning to `COc1ccc(Cn2nccc2NC(=O)CSc2nnnn2-c2cccc(C)c2C)cc1` [Example 1, 2-[1-(2,3-Dimethyl-phenyl)-1H-tetrazol-5-ylsulfanyl]-N-[2-(4-methoxy-benzyl)-2H-pyrazol-3-yl]-acetamide], the IC50 (commonly the concentration needed to halve the response being measured) on human orexin-1 receptor came out at 32 nM; on human orexin-2 receptor, 5 nM.

As to `COc1ccc(Cn2nccc2NC(=O)CSc2nnnn2-c2cccc(C)c2C)cc1C` [Example 2, 2-[1-(2,3-Dimethyl-phenyl)-1H-tetrazol-5-ylsulfanyl]-N-[2-(4-methoxy-3-methyl-benzyl)-2H-pyrazol-3-yl]-acetamide], the half-inhibitory concentration (IC50) on human orexin-1 receptor was 42 nM; on human orexin-2 receptor, 25 nM.

With `COc1ccc(Cn2nccc2NC(=O)CSc2nnnn2-c2cccc(C)c2C)cc1OC` [Example 10, N-[2-(3,4-Dimethoxy-benzyl)-2H-pyrazol-3-yl]-2-[1-(2,3-dimethyl-phenyl)-1H-tetrazol-5-ylsulfanyl]-acetamide], the values for the half-inhibitory concentration (IC50) at human orexin-1 receptor and at human orexin-2 receptor were 61 nM and 89 nM, respectively.

Regarding `Cc1ccccc1Cn1nccc1NC(=O)CSc1nnnn1-c1cccc(C)c1C` [Example 22, 2-[1-(2,3-Dimethyl-phenyl)-1H-tetrazol-5-ylsulfanyl]-N-[2-(2-methyl-benzyl)-2H-pyrazol-3-yl]-acetamide], the figures for the 50% inhibitory concentration (IC50) at human orexin-1 receptor and at human orexin-2 receptor were 48 nM and 115 nM, respectively.

For `COc1ccc(Cn2nccc2NC(=O)CSc2nnnn2-c2cc(C)ccc2C)cc1` [Example 46, 2-[1-(2,5-Dimethyl-phenyl)-1H-tetrazol-5-ylsulfanyl]-N-[2-(4-methoxy-benzyl)-2H-pyrazol-3-yl]-acetamide], the half-inhibitory concentration (IC50) at human orexin-1 receptor was determined as 11 nM; at human orexin-2 receptor it was 6 nM.

As for `COc1ccc(-n2nnnc2SCC(=O)Nc2ccnn2Cc2ccc3c(c2)OCO3)c(OC)c1` [Example 62, N-(2-Benzo[1,3]dioxol-5-ylmethyl-2H-pyrazol-3-yl)-2-[1-(2,4-dimethoxy-phenyl)-1H-tetrazol-5-ylsulfanyl]-acetamide], the IC50 on human orexin-1 receptor was 3440 nM; at human orexin-2 receptor, 1800 nM.

For the compound `Cc1cccc(-n2nnnc2SCC(=O)Nc2ccnn2CC2CC2)c1C` [Example 76, N-(2-Cyclopropylmethyl-2H-pyrazol-3-yl)-2-[1-(2,3-dimethyl-phenyl)-1H-tetrazol-5-ylsulfanyl]-acetamide], the IC50 at human orexin-1 receptor was determined as 363 nM; at human orexin-2 receptor, 165 nM.

Consider `CCC(C)Cn1nccc1NC(=O)CSc1nnnn1-c1cccc(C)c1C` (stereo not drawn) [Example 77, 2-[1-(2,3-Dimethyl-phenyl)-1H-tetrazol-5-ylsulfanyl]-N-[2-(2-methyl-butyl)-2H-pyrazol-3-yl]-acetamide], for which the concentration for half-maximal inhibition (IC50) on human orexin-1 receptor stood at 295 nM; on human orexin-2 receptor, 613 nM.

With `Cc1cccc(-n2nnnc2SCC(=O)Nc2ccnn2CCCc2ccc(OC(F)(F)F)c(F)c2)c1C` [Example 85, 2-[1-(2,3-Dimethyl-phenyl)-1H-tetrazol-5-ylsulfanyl]-N-{2-[3-(3-fluoro-4-trifluoromethoxy-phenyl)-propyl]-2H-pyrazol-3-yl}-acetamide], the IC50 at human orexin-1 receptor is 1810 nM; on human orexin-2 receptor, 146 nM.

On to `Cc1ccc(C)c(-n2nnnc2SCC(=O)Nc2ccnn2CCc2ccccc2)c1` [Example 89, 2-[1-(2,5-Dimethyl-phenyl)-1H-tetrazol-5-ylsulfanyl]-N-(2-phenethyl-2H-pyrazol-3-yl)-acetamide], for which the figures for the IC50 on human orexin-1 receptor and on human orexin-2 receptor were 44 nM and 47 nM, respectively.

With `COc1ccc(Cn2nccc2NC(=O)CCc2nnnn2-c2cccc3ccccc23)cc1` [Example 115, N-[2-(4-Methoxy-benzyl)-2H-pyrazol-3-yl]-3-(1-naphthalen-1-yl-1H-tetrazol-5-yl)-propionamide], the IC50 at human orexin-1 receptor worked out at 25 nM; at human orexin-2 receptor, 41 nM.

As to `COc1ccc(-n2nccc2NC(=O)CCc2nnnn2-c2c(C)cc(C)cc2C)cc1` [Example 139, N-[2-(4-Methoxy-phenyl)-2H-pyrazol-3-yl]-3-[1-(2,4,6-trimethyl-phenyl)-1H-tetrazol-5-yl]-propionamide], the IC50 came out at 796 nM on human orexin-1 receptor and 530 nM on human orexin-2 receptor.

As to `Cc1cccc(-n2nnnc2SCC(=O)Nc2ccnn2-c2ccc(Oc3ccccc3)cc2)c1C` [Example 141, 2-[1-(2,3-Dimethyl-phenyl)-1H-tetrazol-5-ylsulfanyl]-N-[2-(4-phenoxy-phenyl)-2H-pyrazol-3-yl]-acetamide], the concentration for half-maximal inhibition (IC50) at human orexin-1 receptor stood at 85 nM; at human orexin-2 receptor, 19 nM.

As to `COc1ccc(-n2nccc2NC(=O)CSc2nnnn2-c2cccc(C)c2C)cn1` [Example 147, 2-[1-(2,3-Dimethyl-phenyl)-1H-tetrazol-5-ylsulfanyl]-N-[2-(6-methoxy-pyridin-3-yl)-2H-pyrazol-3-yl]-acetamide], the concentration for half-maximal inhibition (IC50) at human orexin-1 receptor worked out at 47 nM; on human orexin-2 receptor, 8300 nM.

On to `COc1ccc(-n2nccc2NC(=O)CSc2nnnn2-c2c(Cl)cccc2Cl)cc1` [Example 152, 2-[1-(2,6-Dichloro-phenyl)-1H-tetrazol-5-ylsulfanyl]-N-[2-(4-methoxy-phenyl)-2H-pyrazol-3-yl]-acetamide], for which the half-maximal inhibitory concentration (IC50) at human orexin-1 receptor amounted to 63 nM; on human orexin-2 receptor, 32 nM.

Consider `Cc1cc(NC(=O)CSc2nnnn2-c2cccc(C)c2C)n(-c2ccccc2)n1` [Example 154, 2-[1-(2,3-Dimethyl-phenyl)-1H-tetrazol-5-ylsulfanyl]-N-(5-methyl-2-phenyl-2H-pyrazol-3-yl)-acetamide], for which the IC50 on human orexin-1 receptor is 7250 nM; at human orexin-2 receptor it was 654 nM.
